Assay results: US4698356A, “Anti-hypertensive agents” (University of Miami, priority 1979, dated 1987)

Biological target: T1, human urinary ACE (angiotensin converting enzyme) (Homo sapiens, UniProt P12821)
T1 construct: The enzyme preparation was ACE purified from human urine; from tissue; host or cells: human urine (enzyme purified as described by Ryan, J.W., et al., Tissue and Cell 10, 555 (1978))
Test: ACE activity assay (inhibition of hydrolysis of [3H]-Benzoyl-GlyHisLeu)
Type: biochemical
Details: read-out: I50
Protocol: These factors include the source of enzyme, its purity, the substrate used and its concentration, and the composition of the assay buffer.
ACE activity assay. […] To initiate the assay, 40 μl of enzyme and 10 μl of water or inhibitor dissolved in water were preincubated for five minutes at 37° C. […] To terminate the reaction, 1 ml of 0.1M HCl was added, following which 1 ml of ethyl acetate was added. The mixture was agitated on a rotary mixer and centrifuged briefly to separate the phases.
An aliquot, 500 μl, of the ethyl acetate layer was transferred to a liquid scintillation vial containing 10 ml of Riafluor, trademark New England Nuclear Corporation, Boston, Mass. For determination of I50 values, enzyme activity in the presence of inhibitor at a series of different concentrations was compared to activity in the absence of inhibitor.

T1 sequence (P12821 30-1232 limits assumed): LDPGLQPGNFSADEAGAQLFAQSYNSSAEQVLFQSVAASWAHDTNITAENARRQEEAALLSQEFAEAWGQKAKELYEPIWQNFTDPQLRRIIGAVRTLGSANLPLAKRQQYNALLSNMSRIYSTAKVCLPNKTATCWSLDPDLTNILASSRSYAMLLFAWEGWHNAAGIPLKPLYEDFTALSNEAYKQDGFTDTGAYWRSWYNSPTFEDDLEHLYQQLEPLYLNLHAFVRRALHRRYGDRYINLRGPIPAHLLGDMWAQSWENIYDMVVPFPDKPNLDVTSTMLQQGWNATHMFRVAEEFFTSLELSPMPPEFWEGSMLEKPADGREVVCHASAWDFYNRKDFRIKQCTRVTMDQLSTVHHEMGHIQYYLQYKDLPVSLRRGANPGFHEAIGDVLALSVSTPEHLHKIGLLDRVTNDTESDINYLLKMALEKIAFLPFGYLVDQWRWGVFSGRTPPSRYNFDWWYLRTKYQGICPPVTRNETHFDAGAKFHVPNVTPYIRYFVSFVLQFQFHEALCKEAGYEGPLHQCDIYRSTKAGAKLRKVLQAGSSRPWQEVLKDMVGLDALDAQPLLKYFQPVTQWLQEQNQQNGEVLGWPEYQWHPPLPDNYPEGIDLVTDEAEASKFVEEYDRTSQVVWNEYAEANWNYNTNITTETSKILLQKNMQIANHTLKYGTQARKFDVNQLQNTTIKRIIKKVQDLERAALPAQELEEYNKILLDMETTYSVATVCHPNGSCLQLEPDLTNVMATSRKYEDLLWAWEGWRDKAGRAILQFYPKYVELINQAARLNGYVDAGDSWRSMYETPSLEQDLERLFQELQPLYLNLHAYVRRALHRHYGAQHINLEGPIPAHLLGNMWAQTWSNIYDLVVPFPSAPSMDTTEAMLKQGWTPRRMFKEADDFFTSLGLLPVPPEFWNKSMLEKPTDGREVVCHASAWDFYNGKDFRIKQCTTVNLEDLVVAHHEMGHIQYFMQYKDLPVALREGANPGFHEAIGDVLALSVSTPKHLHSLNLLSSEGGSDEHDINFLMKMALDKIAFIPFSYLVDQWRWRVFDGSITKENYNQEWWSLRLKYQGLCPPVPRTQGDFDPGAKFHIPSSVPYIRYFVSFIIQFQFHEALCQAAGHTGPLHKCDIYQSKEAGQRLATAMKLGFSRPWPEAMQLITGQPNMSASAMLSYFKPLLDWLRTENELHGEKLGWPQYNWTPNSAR

IC50: 8.8 nM
Structure (SMILES): C[C@H](CSC(=O)[C@@H](N)Cc1ccccc1)C(=O)N1CCC[C@H]1C(=O)O [Example 14, N^α -(3-L-phenylalanylthio-2-D-methylpropanoyl)-L-proline]
